Legend:
Assay type in all cases: in vivo
[1] = system: crabgrass, large (large crabgrass, Digitaria sanguinalis); assay: Test A pre-/postemergence: crabgrass, large; settings: for Crabgrass, Large plant response rating: Postemergence; for Plant response rating, Crabgrass, Large: Preemergence
Summary of the method: (§1)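 Seeds were sown in loam/sand blend and sprayed preemergence (directed soil spray) and, simultaneously, postemergence at 2–10 cm, one- to two-leaf stage, using compounds in non-phytotoxic solvent with surfactant. After ~10 days in greenhouse, injury was rated visually versus untreated controls, 0 (no effect) to 100 (complete control).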

[2] = system: foxtail, giant (giant foxtail, Setaria faberii); assay: Test A pre-/postemergence: foxtail, giant; settings: for Foxtail, Giant plant response rating: Postemergence; for Plant response rating, Foxtail, Giant: Preemergence
Summary of the method: as §1

[3] = system: pigweed (Amaranthus retroflexus); assay: Test A pre-/postemergence: pigweed; settings: for Pigweed plant response rating: Postemergence; for Plant response rating, Pigweed: Preemergence
Summary of the method: as §1

[4] = system: sedge, umbrella (small-flower umbrella sedge Cyperus difformis); assay: Test B flooded paddy: sedge, umbrella; settings: Flood; 250 g ai/ha; applied to paddy water at 2-leaf stage; visually evaluated after 13 to 15 days
Summary of the method: (§2)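 Plants were grown to the 2-leaf stage and pots flooded to 3 cm above soil. Compounds were applied directly into the paddy water, with depth kept for the test. After 13–15 days in greenhouse, response was rated visually against controls on a 0 (no effect) to 100 (complete control) scale.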

[5] = system: velvetleaf (Abutilon theophrasti); assay: Test A pre-/postemergence: velvetleaf; settings: for Velvetleaf plant response rating: Postemergence; for Plant response rating, Velvetleaf: Preemergence
Summary of the method: as §1

[6] = system: rice (Oryza sativa); assay: Test B flooded paddy: rice; settings: Flood; 250 g ai/ha; applied to paddy water at 2-leaf stage; visually evaluated after 13 to 15 days
Protocol: (§3) Seeds selected from rice (Oryza sativa), sedge, umbrella (small-flower umbrella sedge Cyperus difformis), ducksalad (Heteranthera limosa), and barnyardgrass (Echinochloa crus-galli) were grown to the 2-leaf stage for testing. At time of treatment, test pots were flooded to 3 cm above the soil surface, treated by application of test compounds directly to the paddy water, and then maintained at that water depth for the duration of the test.
(§4) Treated plants and controls were maintained in a greenhouse for 13 to 15 days, after which time all species were compared to controls and visually evaluated. Plant response ratings, summarized in Table B, are based on a scale of 0 to 100 where 0 is no effect and 100 is complete control. A dash (-) response means no test result.

[7] = system: barnyardgrass (Echinochloa crus-galli); assay: Test A pre-/postemergence: barnyardgrass; settings: for Barnyardgrass plant response rating: Postemergence; for Plant response rating, Barnyardgrass: Preemergence
Summary of the method: as §1

[8] = system: wheat (Triticum aestivum); assay: Test A pre-/postemergence: wheat; settings: for Wheat plant response rating: Postemergence; for Plant response rating, Wheat: Preemergence
Summary of the method: as §1

[9] = system: barnyardgrass (Echinochloa crus-galli); assay: Test B flooded paddy: barnyardgrass; settings: Flood; 250 g ai/ha; applied to paddy water at 2-leaf stage; visually evaluated after 13 to 15 days
Protocol: as §3, §4

[10] = system: ducksalad (Heteranthera limosa); assay: Test B flooded paddy: ducksalad; settings: Flood; 250 g ai/ha; applied to paddy water at 2-leaf stage; visually evaluated after 13 to 15 days
Summary of the method: as §2

[11] = system: morningglory (Ipomoea spp.); assay: Test A pre-/postemergence: morningglory; settings: for Plant response rating, Morningglory: Preemergence; for Morningglory plant response rating: Postemergence
Summary of the method: as §1

[12] = system: corn (Zea mays); assay: Test A pre-/postemergence: corn; settings: for Corn plant response rating: Postemergence; for Plant response rating, Corn: Preemergence
Summary of the method: as §1

[13] = 125 g ai/ha, 0 to 100 scale, 0 is no effect, 100 is complete control
[14] = 500 g ai/ha, visual rating on 0 to 100 scale (0 no effect, 100 complete control), approximately ten days
[15] = 125 g ai/ha, 0 to 100 scale (0 no effect, 100 complete control)
[16] = 500 g ai/ha, 0 to 100 scale, 0 is no effect, 100 is complete control

Row | SMILES | Crabgrass, Large plant response rating [1, 13] | Crabgrass, Large plant response rating [1, 14] | Plant response rating, Crabgrass, Large [1, 15] | Plant response rating, Crabgrass, Large [1, 16] | Foxtail, Giant plant response rating [2, 13] | Foxtail, Giant plant response rating [2, 14] | Plant response rating, Foxtail, Giant [2, 15] | Plant response rating, Foxtail, Giant [2, 16] | Pigweed plant response rating [3, 13] | Pigweed plant response rating [3, 14] | Plant response rating, Pigweed [3, 15] | Plant response rating, Pigweed [3, 16] | Plant response rating, Sedge, Umbrella (0 to 100 scale, 0 is no effect, 100 is complete control) [4] | Velvetleaf plant response rating [5, 13] | Velvetleaf plant response rating [5, 14] | Plant response rating, Velvetleaf [5, 15] | Plant response rating, Velvetleaf [5, 16] | Plant response rating, Rice (0 to 100 scale, 0 is no effect, 100 is complete control) [6] | Barnyardgrass plant response rating [7, 13] | Barnyardgrass plant response rating [7, 14] | further results
1 | Cc1nn(-c2ccc(Br)cc2)nc1Oc1ccnc(C(F)(F)F)c1 [Compound 53] | 90 | 90 | 100 | 100 | 90 | 90 | 100 | 100 | 100 | 100 | 90 | 100 | 85 | 80 | 100 | 10 | 50 | 50 | 90 | 90 | Plant response rating, Barnyardgrass [7, 15]: 80; Plant response rating, Barnyardgrass [7, 16]: 100; Wheat plant response rating [8, 13]: 20; Wheat plant response rating [8, 14]: 30; Plant response rating, Wheat [8, 15]: 10; Plant response rating, Wheat [8, 16]: 30; Plant response rating, Barnyardgrass (0 to 100 scale, 0 is no effect, 100 is complete control) [9]: 60; Plant response rating, Ducksalad (0 to 100 scale, 0 is no effect, 100 is complete control) [10]: 85; Plant response rating, Morningglory [11, 15]: 30; Plant response rating, Morningglory [11, 16]: 40; Corn plant response rating [12, 13]: 30; Corn plant response rating [12, 14]: 40; Plant response rating, Corn [12, 15]: 0; Plant response rating, Corn [12, 16]: 20
2 | Cc1nn(-c2ccc(F)c(F)c2)nc1Cc1ccnc(C(F)(F)F)c1 [Compound 55] | 80 | 90 | 100 | 100 | 90 | 90 | 100 | 100 | 100 | 100 | 100 | 100 | 100 | 100 | 100 | 40 | 70 | 60 | 90 | 90 | Plant response rating, Barnyardgrass [7, 15]: 90; Plant response rating, Barnyardgrass [7, 16]: 100; Wheat plant response rating [8, 13]: 20; Wheat plant response rating [8, 14]: 40; Plant response rating, Wheat [8, 15]: 10; Plant response rating, Wheat [8, 16]: 40; Plant response rating, Barnyardgrass (0 to 100 scale, 0 is no effect, 100 is complete control) [9]: 70; Plant response rating, Ducksalad (0 to 100 scale, 0 is no effect, 100 is complete control) [10]: 100; Plant response rating, Morningglory [11, 15]: 50; Plant response rating, Morningglory [11, 16]: 80; Corn plant response rating [12, 13]: 20; Corn plant response rating [12, 14]: 50; Plant response rating, Corn [12, 15]: 20; Plant response rating, Corn [12, 16]: 50
3 | Cc1cnccc1Oc1nn(-c2ccc(F)cc2)nc1C [Compound 87] | 0 | 0 | 0 | 0 | 0 | 0 | 0 | 0 | 0 | 0 | 0 | 0 | 50 | 0 | 0 | 0 | 0 | 0 | 0 | 0 | Plant response rating, Barnyardgrass [7, 15]: 0; Plant response rating, Barnyardgrass [7, 16]: 0; Wheat plant response rating [8, 13]: 0; Wheat plant response rating [8, 14]: 0; Plant response rating, Wheat [8, 15]: 0; Plant response rating, Wheat [8, 16]: 0; Plant response rating, Barnyardgrass (0 to 100 scale, 0 is no effect, 100 is complete control) [9]: 0; Plant response rating, Ducksalad (0 to 100 scale, 0 is no effect, 100 is complete control) [10]: 0; Morningglory plant response rating [11, 13]: 0; Morningglory plant response rating [11, 14]: 0; Plant response rating, Morningglory [11, 15]: 0; Plant response rating, Morningglory [11, 16]: 0; Corn plant response rating [12, 13]: 0; Corn plant response rating [12, 14]: 0; Plant response rating, Corn [12, 15]: 0; Plant response rating, Corn [12, 16]: 0

— patent US9302999B2, “Substituted triazoles as herbicides” (E. I. DU PONT DE NEMOURS AND COMPANY, priority 2012, dated 2016)
